The values that follow are results of earlier work, collected in US20050249806A1, “Combination of proton pump inhibitor, buffering agent, and nonsteroidal anti-inflammatory drug” (Santarus, Inc., priority 2004, published 2005).

For the first series the following is noted: pharmacokinetic half-life.
Turning to `Cc1cccc(Nc2ccccc2C(=O)O)c1C` [mefenamic acid], the half-life – broadly, the time needed for the level to fall by half in the phase considered – is reported as “up to 4 hours”. For `COc1ccc2cc(CCC(C)=O)ccc2c1` [nabumetone], the half-life was 22 to 30 h. Regarding `O=C(O)CCc1nc(-c2ccccc2)c(-c2ccccc2)o1` [oxaprozin], the half-life was 42 to 50 h. Take `O=C(c1ccccc1)c1ccc2n1CCC2C(=O)O` (stereo not shown) [ketorolac]: the half-life is 8 to 9 h. For `CC(C(=O)O)c1ccc(-c2ccccc2)c(F)c1` (stereo not shown) [flurbiprofen], the half-life entry is on record as “about 6 hours”. Consider `CCc1cccc2c3c([nH]c12)C(CC)(CC(=O)O)OCC3` (stereo not shown) [etodolac], for which the half-life result was “about 7 hours”.

Conditions in the next series: not given
Regarding `COc1ccc2[nH]c([S+]([O-])Cc3ncc(C)c(OC)c3C)nc2c1` (stereo not shown) [omeprazole], the water solubility entry is recorded as “poor water solubility”.
